Assay results as given in patent US10889553B2, “Asymmetric triazole benzamide derivatives and the compositions and methods of treatment regarding the same” (NysnoBio Ireland DAC, priority 2017, dated 2021).
Like-named read-outs stand apart in the source and are kept apart here.

Columns and labels:
[1] = target: norepinephrine transporter (h) (Homo sapiens, UniProt P23975); assay: Selectivity screen, radioligand displacement; format: binding; conditions: read-out: % Inhib norepinephrine transporter (h)
Source text: (§1) If the % inhibition is less than 50%, the test compounds is consider to have no effect.

kappa (KOP) = kappa (KOP) (Rattus norvegicus, UniProt P34975); assay: Selectivity screen, radioligand displacement; format: binding; conditions: read-out: % Inhib kappa (KOP)
Source text: as §1

acetylcholinesterase (h) = acetylcholinesterase (h) (Homo sapiens, UniProt P22303); assay: Selectivity screen, radioligand displacement; format: binding; conditions: read-out: % Inhib acetylcholinesterase (h)
Source text: as §1

Lck kinase (h) = Lck kinase (h) (Homo sapiens, UniProt P06239); assay: Selectivity screen, radioligand displacement; format: binding; conditions: read-out: % Inhib Lck kinase (h)
Source text: as §1

CB2 (h) = CB2 (h) (Homo sapiens, UniProt P34972); assay: Selectivity screen, radioligand displacement; format: binding; conditions: read-out: % Inhib CB2 (h)
Source text: as §1

alpha 2A (h) = alpha 2A (h) (Homo sapiens, UniProt P08913); assay: Selectivity screen, radioligand displacement; format: binding; conditions: read-out: % Inhib alpha 2A (h)
Source text: as §1

H1 (h) = H1 (h) (Homo sapiens, UniProt P35367); assay: Selectivity screen, radioligand displacement; format: binding
Source text: as §1

5-HT2B (h) = 5-HT2B (h) (Homo sapiens, UniProt P41595); assay: Selectivity screen, radioligand displacement; format: binding; conditions: read-out: % Inhib 5-HT2B (h)
Source text: as §1

H2 (h) = H2 (h) (Homo sapiens, UniProt P25021); assay: Selectivity screen, radioligand displacement; format: binding; conditions: read-out: % Inhib H2 (h)
Source text: as §1

alpha 1A (h) = alpha 1A (h) (Homo sapiens, UniProt P35348); assay: Selectivity screen, radioligand displacement; format: binding; conditions: read-out: % Inhib alpha 1A (h)
Source text: as §1

5-HT1A (h) = 5-HT1A (h) (Homo sapiens, UniProt P08908); assay: Selectivity screen, radioligand displacement; format: binding; conditions: read-out: % Inhib 5-HT1A (h)
Source text: as §1

PDE4D2 (h) = PDE4D2 (h) (Homo sapiens, UniProt Q08499); assay: Selectivity screen, radioligand displacement; format: binding; conditions: read-out: % Inhib PDE4D2 (h)
Source text: as §1

beta 2(h) = beta 2(h) (Homo sapiens, UniProt P07550); assay: Selectivity screen, radioligand displacement; format: binding; conditions: read-out: % Inhib beta 2(h)
Source text: as §1

delta (DOP) (h) = delta (DOP) (h) (Homo sapiens, UniProt P41143); assay: Selectivity screen, radioligand displacement; format: binding; conditions: read-out: % Inhib delta (DOP) (h)
Source text: as §1

dopamine transporter (h) = dopamine transporter (h) (Homo sapiens, UniProt Q01959); assay: Selectivity screen, radioligand displacement; format: binding; conditions: read-out: % Inhib dopamine transporter (h)
Source text: as §1

COX1(h) = COX1(h) (Homo sapiens, UniProt P23219); assay: Selectivity screen, radioligand displacement; format: binding; conditions: read-out: % Inhib COX1(h)
Source text: as §1

5-HT transporter (h) = 5-HT transporter (h) (Homo sapiens, UniProt P31645); assay: Selectivity screen, radioligand displacement; format: binding; conditions: read-out: % Inhib 5-HT transporter (h)
Source text: as §1

5 major CYP enzymes = assay: CYP inhibition assay (all 5 enzymes); format: in vitro ADME; conditions: 30 μM, in words
[2] = Oral bioavailability (PO) and pharmacokinetics assay; format: in vivo, mice; conditions: mouse
Description: The pharmacokinetics and oral bioavailability of various compounds was evaluated following IV or PO administration to fasted male Sprague-Dawley […] (N=3/route/dose). […] For IV dosing, each compound was formulated in 10% DMA/15% Solutol/75% HPβ-CD (20%) as a 1 mg/mL solution for IV (3 mg/kg), for IP (5 mg/kg) and for PO (10 mg/kg) administrations.
Blood samples (0.250 mL) were collected into EDTA tubes then processed to generate plasma samples. Blood samples were collected at pre-dose, 0.083, 0.25, 0.5, 1, 2, 4, 8 and 24 hours post-dose administration. Plasma concentrations of each compound were determined using LC-MS/MS with a lower limit of quantitation of 1.0 ng/mL. The pharmacokinetic parameters were determined by non-compartmental methods using WinNonlin.
The pharmacokinetic parameters of each compound were determined by non-compartmental analysis (Model 201 for IV administration and Model 200 for PO administration) using WinNonlin Version 6.4 (Pharsight, Mountain View, Calif.). The area under the curve from the time of dosing to the last measurable concentration, AUC(0-t), was calculated by the linear trapezoidal rule. The area under the concentration-time curve extrapolated to infinity, AUC(0-∞), was calculated as follows: AUC(0-∞)=AUC(0-t)+Clast/k
Where Clast is the last measurable concentration and k is the first order rate constant associated with the terminal elimination phase, estimated by linear regression of log concentration versus time. The half-life (T1/2) of the terminal elimination phase was estimated based on the following equation: T1/2=0.693/k
K was determined based on at least three timepoints with R^2≥0.9. Additional parameters were calculated as follows: CL=Dose/AUC(0-∞)
Where CL is the clearance of the compound of the disclosure in L/hr/kg, Dose is the administered dose in mg/kg. Mean residence time (MRT) was calculated as follows: MRT=AUMC(0-∞)/AUC(0-∞)
Where area under the first moment curve extrapolated to infinity (AUMC0-∞)) was calculated as follows: AUMC(0-∞)=AUMClast+tlast*[…]+Clast/k^2
The steady state volume of distribution (Vss) was calculated as follows: Vss=CL×MRT.
The oral bioavailability based on AUC(0-t) was calculated as follows: F(%)=AUCPO/AUCIV×DoseIV/DosePO×100. For IV administration, the initial concentration, Co is reported and is an extrapolated value. For PO administration, the maximum concentration, Cmax is report and is an observed value.

[3] = male, Sprague-Dawley, plasma, IP (5 mg/kg)
[4] = male, Sprague-Dawley, plasma, IV bolus (3 mg/kg)
[5] = male, Sprague-Dawley, plasma, PO (10 mg/kg)

Chain of H1 (h) (P35367 whole entry): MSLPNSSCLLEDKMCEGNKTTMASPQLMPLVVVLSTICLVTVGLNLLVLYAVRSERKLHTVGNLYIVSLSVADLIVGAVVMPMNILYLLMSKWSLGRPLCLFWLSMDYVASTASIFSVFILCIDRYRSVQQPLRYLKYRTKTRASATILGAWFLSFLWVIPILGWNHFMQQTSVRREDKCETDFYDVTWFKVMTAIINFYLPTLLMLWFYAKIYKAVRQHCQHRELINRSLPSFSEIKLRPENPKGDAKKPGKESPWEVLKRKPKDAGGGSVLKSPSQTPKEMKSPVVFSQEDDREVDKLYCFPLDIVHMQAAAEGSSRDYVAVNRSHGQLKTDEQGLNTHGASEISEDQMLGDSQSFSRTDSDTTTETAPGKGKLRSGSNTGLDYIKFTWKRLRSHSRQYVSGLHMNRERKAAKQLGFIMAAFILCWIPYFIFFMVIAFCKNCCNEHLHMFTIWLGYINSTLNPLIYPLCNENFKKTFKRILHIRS
Chain of Lck kinase (h) (P06239 whole entry): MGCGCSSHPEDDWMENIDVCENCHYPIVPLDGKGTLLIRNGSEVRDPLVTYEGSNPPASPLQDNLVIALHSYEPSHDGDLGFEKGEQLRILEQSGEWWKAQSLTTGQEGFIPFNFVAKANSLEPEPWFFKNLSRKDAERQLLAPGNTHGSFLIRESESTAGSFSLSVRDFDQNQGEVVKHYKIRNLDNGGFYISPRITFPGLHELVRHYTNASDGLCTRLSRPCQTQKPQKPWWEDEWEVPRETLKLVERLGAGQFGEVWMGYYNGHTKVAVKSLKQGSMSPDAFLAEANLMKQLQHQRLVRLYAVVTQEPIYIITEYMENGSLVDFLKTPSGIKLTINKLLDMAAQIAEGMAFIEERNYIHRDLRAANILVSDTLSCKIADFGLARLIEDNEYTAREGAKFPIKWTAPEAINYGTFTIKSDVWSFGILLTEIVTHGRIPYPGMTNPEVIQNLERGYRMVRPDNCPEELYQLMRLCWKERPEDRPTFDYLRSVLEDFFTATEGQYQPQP
Chain of 5-HT transporter (h) (P31645 whole entry): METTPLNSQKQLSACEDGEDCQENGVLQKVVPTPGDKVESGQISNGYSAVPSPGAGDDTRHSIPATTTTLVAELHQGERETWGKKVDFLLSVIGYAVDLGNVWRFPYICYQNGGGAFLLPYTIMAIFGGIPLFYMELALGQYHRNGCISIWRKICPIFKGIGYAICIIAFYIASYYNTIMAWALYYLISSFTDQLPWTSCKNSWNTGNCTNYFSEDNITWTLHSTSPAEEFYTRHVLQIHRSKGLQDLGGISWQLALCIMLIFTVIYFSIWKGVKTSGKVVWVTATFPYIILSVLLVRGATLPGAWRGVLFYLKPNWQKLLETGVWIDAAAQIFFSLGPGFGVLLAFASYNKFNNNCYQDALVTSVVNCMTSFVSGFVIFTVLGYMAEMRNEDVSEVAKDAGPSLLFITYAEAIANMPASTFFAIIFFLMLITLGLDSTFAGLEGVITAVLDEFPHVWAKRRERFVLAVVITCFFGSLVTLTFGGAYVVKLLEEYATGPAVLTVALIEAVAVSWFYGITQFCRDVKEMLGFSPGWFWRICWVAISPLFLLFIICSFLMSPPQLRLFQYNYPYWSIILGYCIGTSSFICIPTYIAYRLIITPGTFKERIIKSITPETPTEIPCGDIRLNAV
Chain of 5-HT2B (h) (P41595 whole entry): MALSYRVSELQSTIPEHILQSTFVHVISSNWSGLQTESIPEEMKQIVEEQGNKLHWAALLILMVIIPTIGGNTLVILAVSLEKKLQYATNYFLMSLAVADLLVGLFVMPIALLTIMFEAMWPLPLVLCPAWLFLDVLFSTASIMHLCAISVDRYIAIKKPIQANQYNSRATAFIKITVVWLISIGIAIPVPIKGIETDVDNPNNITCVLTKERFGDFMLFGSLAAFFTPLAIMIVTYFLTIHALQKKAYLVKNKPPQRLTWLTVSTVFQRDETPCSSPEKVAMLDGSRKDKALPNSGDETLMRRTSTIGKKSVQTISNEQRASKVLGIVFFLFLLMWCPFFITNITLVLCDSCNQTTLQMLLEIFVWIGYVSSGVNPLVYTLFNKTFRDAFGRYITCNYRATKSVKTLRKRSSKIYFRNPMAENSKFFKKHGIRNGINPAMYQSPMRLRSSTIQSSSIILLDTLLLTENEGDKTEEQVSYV
Chain of CB2 (h) (P34972 whole entry): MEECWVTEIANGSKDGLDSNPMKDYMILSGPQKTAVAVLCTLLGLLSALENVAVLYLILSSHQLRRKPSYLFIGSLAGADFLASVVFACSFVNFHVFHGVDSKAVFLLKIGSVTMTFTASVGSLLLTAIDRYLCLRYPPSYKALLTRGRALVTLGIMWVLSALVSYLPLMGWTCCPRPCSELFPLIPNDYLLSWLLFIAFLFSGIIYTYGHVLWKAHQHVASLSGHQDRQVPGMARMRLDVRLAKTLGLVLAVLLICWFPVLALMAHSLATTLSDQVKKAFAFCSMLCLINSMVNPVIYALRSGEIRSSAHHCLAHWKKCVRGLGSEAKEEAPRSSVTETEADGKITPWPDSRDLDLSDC
Chain of beta 2(h) (P07550 whole entry): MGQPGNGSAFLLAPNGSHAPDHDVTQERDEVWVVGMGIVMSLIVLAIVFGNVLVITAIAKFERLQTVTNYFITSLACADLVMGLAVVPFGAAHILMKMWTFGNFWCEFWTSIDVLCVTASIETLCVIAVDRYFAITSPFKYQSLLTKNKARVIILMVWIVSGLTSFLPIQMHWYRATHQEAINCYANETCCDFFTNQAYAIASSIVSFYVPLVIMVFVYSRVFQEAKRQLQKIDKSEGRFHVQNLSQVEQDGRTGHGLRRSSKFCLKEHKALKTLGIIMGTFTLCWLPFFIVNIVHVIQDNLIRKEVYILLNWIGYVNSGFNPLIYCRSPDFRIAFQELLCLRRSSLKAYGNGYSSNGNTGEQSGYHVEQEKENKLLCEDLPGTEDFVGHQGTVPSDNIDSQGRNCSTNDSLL
Chain of alpha 1A (h) (P35348 whole entry): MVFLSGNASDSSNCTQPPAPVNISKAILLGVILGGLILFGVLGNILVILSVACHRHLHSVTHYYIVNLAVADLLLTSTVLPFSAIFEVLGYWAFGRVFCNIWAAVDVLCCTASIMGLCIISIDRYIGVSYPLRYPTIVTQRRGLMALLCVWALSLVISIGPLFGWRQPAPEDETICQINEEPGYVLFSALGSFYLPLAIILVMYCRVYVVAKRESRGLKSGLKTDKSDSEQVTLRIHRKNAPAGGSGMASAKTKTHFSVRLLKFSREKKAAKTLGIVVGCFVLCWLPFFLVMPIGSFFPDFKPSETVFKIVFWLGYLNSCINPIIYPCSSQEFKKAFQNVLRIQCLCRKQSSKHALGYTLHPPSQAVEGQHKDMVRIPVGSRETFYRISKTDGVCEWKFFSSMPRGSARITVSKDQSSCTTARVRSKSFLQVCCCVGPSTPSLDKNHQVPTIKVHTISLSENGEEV
Chain of PDE4D2 (h) (Q08499 303-809): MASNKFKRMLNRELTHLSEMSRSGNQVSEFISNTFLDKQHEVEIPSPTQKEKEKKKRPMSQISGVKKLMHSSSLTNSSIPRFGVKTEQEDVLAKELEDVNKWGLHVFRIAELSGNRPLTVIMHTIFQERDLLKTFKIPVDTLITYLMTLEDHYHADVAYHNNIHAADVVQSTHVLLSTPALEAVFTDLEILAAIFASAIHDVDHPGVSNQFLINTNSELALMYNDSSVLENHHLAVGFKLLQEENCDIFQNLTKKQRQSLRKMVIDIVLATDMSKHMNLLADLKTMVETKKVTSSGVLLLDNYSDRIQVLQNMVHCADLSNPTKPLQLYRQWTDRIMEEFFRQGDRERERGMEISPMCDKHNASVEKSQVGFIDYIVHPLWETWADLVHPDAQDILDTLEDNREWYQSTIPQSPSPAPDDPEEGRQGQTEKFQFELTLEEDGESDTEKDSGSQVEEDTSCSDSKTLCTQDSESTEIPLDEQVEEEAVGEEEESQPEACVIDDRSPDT
Chain of alpha 2A (h) (P08913 whole entry): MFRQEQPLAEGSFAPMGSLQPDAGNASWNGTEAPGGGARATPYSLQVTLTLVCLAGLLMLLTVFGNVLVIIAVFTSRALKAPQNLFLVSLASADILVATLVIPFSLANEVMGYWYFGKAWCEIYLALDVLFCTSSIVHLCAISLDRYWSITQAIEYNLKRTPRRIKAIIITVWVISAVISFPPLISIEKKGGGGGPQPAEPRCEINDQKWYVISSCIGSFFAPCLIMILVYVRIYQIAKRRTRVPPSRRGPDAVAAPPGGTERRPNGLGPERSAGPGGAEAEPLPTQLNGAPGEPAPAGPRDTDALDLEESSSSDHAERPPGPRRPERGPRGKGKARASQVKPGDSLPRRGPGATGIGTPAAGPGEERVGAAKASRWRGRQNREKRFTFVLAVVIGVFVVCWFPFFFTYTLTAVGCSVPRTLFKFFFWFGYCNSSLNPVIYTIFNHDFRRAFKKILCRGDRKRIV
Chain of kappa (KOP) (P34975 whole entry): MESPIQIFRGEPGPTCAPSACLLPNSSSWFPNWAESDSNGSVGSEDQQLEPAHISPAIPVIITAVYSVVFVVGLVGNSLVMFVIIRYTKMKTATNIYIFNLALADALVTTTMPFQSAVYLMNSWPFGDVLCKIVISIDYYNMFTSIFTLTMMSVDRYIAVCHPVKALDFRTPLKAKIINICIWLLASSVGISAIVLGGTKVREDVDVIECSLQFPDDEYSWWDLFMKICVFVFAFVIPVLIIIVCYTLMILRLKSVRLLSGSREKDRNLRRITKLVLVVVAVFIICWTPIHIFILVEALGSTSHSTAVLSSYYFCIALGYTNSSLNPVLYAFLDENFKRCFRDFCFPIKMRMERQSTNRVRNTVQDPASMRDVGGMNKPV

Question: Which inhibition at 10 µM [1] does the source give for `Cc1ccccc1C(=O)Nc1nc(NC(=O)c2ccccc2C)n(-c2ccc(OC(F)(F)F)cc2)n1` [Compound 42, N,N′-(1-(4-(trifluoromethoxy)phenyl)-1H-1,2,4-triazole-3,5-diyl)bis(2-methylbenzamide)] here?
Answer: 1%

Question: What about the inhibition at 10 µM (kappa (KOP)) of the same molecule?
Answer: 3%

Question: And the inhibition at 10 µM (acetylcholinesterase (h))?
Answer: 1%

Question: And the inhibition at 10 µM (Lck kinase (h))?
Answer: 8%

Question: And the inhibition at 10 µM (CB2 (h))?
Answer: < 1%

Question: And the inhibition at 10 µM (alpha 2A (h))?
Answer: < 1%

Question: And the inhibition at 10 µM (H1 (h))?
Answer: < 1%

Question: What about the inhibition at 10 µM (5-HT2B (h)) of the same molecule?
Answer: < 1%

Question: And the inhibition at 10 µM (H2 (h))?
Answer: < 1%

Question: What about the inhibition at 10 µM (alpha 1A (h)) of the same molecule?
Answer: 16%

Question: What about the inhibition at 10 µM (5-HT1A (h)) of the same molecule?
Answer: 10%

Question: And the inhibition at 10 µM (PDE4D2 (h))?
Answer: 35%

Question: What about the inhibition at 10 µM (beta 2(h)) of the same molecule?
Answer: 9%

Question: And the inhibition at 10 µM (delta (DOP) (h))?
Answer: 9%

Question: What about the inhibition at 10 µM (dopamine transporter (h)) of the same molecule?
Answer: 13%

Question: What about the inhibition at 10 µM (COX1(h)) of the same molecule?
Answer: 19%

Question: What about the inhibition at 10 µM (5-HT transporter (h)) of the same molecule?
Answer: 10%

Question: And the “CYP inhibition activity for the 5 major CYP enzymes” value (5 major CYP enzymes)?
Answer: no significant CYP inhibition activity

Question: And the bioavailability ([2]; male, Sprague-Dawley, plasma, intraperitoneal, 5 mg/kg, IP (5 mg/kg) vs IV, read-out: F (%))?
Answer: 50.3%

Question: And the half-life ([2]; male, Sprague-Dawley, plasma, ip, 5 mg/kg, IP (5 mg/kg))?
Answer: 47 h

Question: What about the half-life ([2]; male, Sprague-Dawley, plasma, iv, 3 mg/kg) of the same molecule?
Answer: 16 h

Question: And the half-life ([2]; male, Sprague-Dawley, plasma, iv, 3 mg/kg, IV bolus (3 mg/kg))?
Answer: 16.4 h

Question: What about the Vd ([2]; male, Sprague-Dawley, plasma, iv, 3 mg/kg, IV bolus (3 mg/kg), read-out: Vss) of the same molecule?
Answer: 1.3 L/kg

Question: And the bioavailability ([2]; male, Sprague-Dawley, plasma, oral, 10 mg/kg, PO (10 mg/kg) vs IV, read-out: F (%) oral bioavailability)?
Answer: 21%

Question: What about the half-life ([2]; male, Sprague-Dawley, plasma, po, 10 mg/kg, PO (10 mg/kg)) of the same molecule?
Answer: 25 h

Question: What about the AUC(0-t) [2, 3] of the same molecule?
Answer: 21500 ng·h/mL

Question: And the Cmax [2, 3]?
Answer: 1400 ng/mL

Question: And the Tmax [2, 3]?
Answer: 1.33 h

Question: What about the AUC(0-t) [2, 4] of the same molecule?
Answer: 25700 ng·h/mL

Question: And the clearance [2, 4]?
Answer: 1.49 mL/min/kg

Question: What about the C0 ([2]; male, Sprague-Dawley, plasma, IV bolus (3 mg/kg), extrapolated value) of the same molecule?
Answer: 40500 ng/mL

Question: What about the AUC(0-t) [2, 5] of the same molecule?
Answer: 18400 ng·h/mL

Question: And the Cmax [2, 5]?
Answer: 1060 ng/mL

Question: What about the Tmax [2, 5] of the same molecule?
Answer: 3.67 h

Question: What about the “Vss” value ([2]; IV bolus (3 mg/kg), 3 mg/kg) of the same molecule?
Answer: 1.32 L/kg

Question: What about the IV clearance ([2]; IV, in words) of the same molecule?
Answer: reasonable

Question: And the “F (%) oral bioavailability” value ([2]; PO (10 mg/kg) vs IV, 10 mg/kg)?
Answer: 21.4%
